# Laboratory results reported in PMC9718554, “Discovery of a fragment hit compound targeting D-Ala:D-Ala ligase of bacterial peptidoglycan biosynthesis” (Journal of Enzyme Inhibition and Medicinal Chemistry, 2022).
# Biological target: T1, E. coli DdlB enzyme (D-alanine:D-alanine ligase) (Escherichia coli, UniProt P07862)
# T1 construct: made in house; host or cells: E. coli
# Assay: biochemical
# Conditions: fragment library screening; tested concentration 1.8 mM; read-out: DdlB RA
row,Structure (SMILES),remaining activity at 1800 µM [%]
1,O=C(O)C1CCN(c2ccc(C(F)(F)F)cn2)CC1 [FF30-0262],92

# Same assay, conditions: read-out: DdlB RA
row,Structure (SMILES),remaining activity at 2500 µM [%]
1,N#Cc1nc[nH]c1C#N [FLD004],100
2,Cc1ccc(N)c(O)c1 [FLD023],100
3,[C-]#[N+]CS(=O)(=O)c1ccc(C)cc1 [FLD035],100
4,Nc1ccc(F)c(Cl)c1 [FLD050],98
5,O=C1CC[C@H](C(=O)O)O1 [FLD057],100
6,Nc1ncccc1C(=O)O [FLD088],98

# Same assay, conditions: residual activity of DdlB, fragment library screening, tested concentration 3.0 mM; read-out: DdlB RA
row,Structure (SMILES),remaining activity at 3000 µM [%]
1,O=c1cc(N2CCOCC2)cn[nH]1 [FF20-1495],88

# Same assay, conditions: residual activity of DdlB; fragment library screening; tested concentration 2.5 mM; read-out: DdlB RA
row,Structure (SMILES),remaining activity at 2500 µM [%]
1,CC(=O)Oc1cccc(C(=O)O)c1 [FLD001],100
2,O=c1[nH][nH]c2ccccc12 [FLD002],89
3,O=C(O)Cc1ccsc1 [FLD003],100
4,O=C(O)c1n[nH]c2ccccc12 [FLD005],97
5,COC(=O)c1ccccc1C(=O)O [FLD006],89
6,NC(=O)c1cnccn1 [FLD007],100
7,COc1ccc2c(c1)C(=O)CCC2 [FLD008],100
8,Oc1cccc2[nH]ccc12 [FLD010],100
9,O=C(O)c1c[nH]cn1 [FLD011],100
10,COc1cc(C#N)ccc1C [FLD012],51
11,COc1ccc2ccc(O)cc2c1 [FLD013],73
12,Cc1cc(N)no1 [FLD014],104
13,CC(=O)c1ccc([N+](=O)[O-])cc1 [FLD015],100
14,NC(=O)Nc1ccccc1 [FLD016],99
15,NC(=O)NC(=O)Cc1ccccc1 [FLD017],100
16,Cc1nc(-c2ccc(C(=O)O)cc2)cs1 [FLD018],99
17,CC(Oc1ccccc1)C(=O)O (stereo not drawn) [FLD019],99
18,O=C(O)c1ccc(-n2ccnc2)cc1 [FLD020],96
19,Cc1c[nH]c(=O)[nH]c1=O [FLD021],91
20,O=C1CNC(=S)N1 [FLD022],98
21,Cc1nc(-c2ccncc2)sc1C(=O)O [FLD024],96

row,Structure (SMILES),remaining activity at 2500 µM [%]
1,Cc1ccc(C(=N)N)cc1 [FLD025],100
2,O=C(O)c1ccc(-c2cnco2)cc1 [FLD026],87
3,COc1cc(O)cc(OC)c1OC [FLD027],98
4,O=C1CCC(C(=O)O)N1 (stereo not drawn) [FLD028],100
5,O=C1COc2cc(O)ccc21 [FLD029],100
6,COc1ccc(-c2ccc(C(=O)O)o2)cc1 [FLD030],100
7,NC(=O)c1cccnc1 [FLD031],100
8,Nc1cc(Cl)ccc1O [FLD032],100
9,Cc1ccccc1C(=O)NCC(=O)O [FLD033],100
10,O=C(O)c1ccc[nH]1 [FLD034],100
11,Cc1cc(N)on1 [FLD036],97
12,Cc1cc(Cl)ccc1O [FLD037],85
13,O=C(O)C1Cc2ccccc2N1 (stereo not drawn) [FLD038],81
14,O=C(O)[C@H](O)Cc1ccccc1 [FLD039],93
15,c1cnc2c(c1)ccc1cccnc12 [FLD040],74
16,O=C1CNC(=O)N1 [FLD041],95
17,Nc1cc(O)[nH]n1 [FLD042],100
18,NC(=O)c1ccccc1N [FLD043],98
19,NOCc1ccccc1 [FLD044],94
20,Oc1ccc(OCc2ccccc2)cc1 [FLD045],100
21,Cc1cc(Cl)nc(N)n1 [FLD046],79

row,Structure (SMILES),remaining activity at 2500 µM [%]
1,Nc1cc(F)c(F)cc1C(=O)O [FLD047],92
2,COc1cc(N)c(C#N)cc1OC [FLD048],100
3,COc1nc(Cl)nc(OC)n1 [FLD049],95
4,Cc1ccc(C#N)c(O)n1 [FLD051],97
5,Nc1ccc(Cl)nn1 [FLD052],96
6,Nc1cc[nH]c(=O)n1 [FLD053],100
7,Nc1cccc2ncccc12 [FLD054],94
8,O=C(O)Cc1ccncc1 [FLD055],96
9,O=C(O)c1ccc(CN2CCCCC2)cc1 [FLD056],100
10,O=C1CNCCN1 [FLD058],100
11,N=C1NC(=O)CS1 [FLD059],99
12,O=C(O)c1ccccc1Br [FLD060],100
13,Nc1cccc([N+](=O)[O-])c1 [FLD061],98
14,O=C(O)c1ccc(F)cc1 [FLD062],98
15,CC(=O)Nc1cccc(C)c1 [FLD063],100
16,CCOc1ccc(NC(C)=O)cc1 [FLD064],98
17,OCc1cccc(Oc2ccccc2)c1 [FLD065],100
18,O=C(O)C(c1ccccc1)c1ccccc1 [FLD066],100
19,NS(=O)(=O)c1ccc(Cl)s1 [FLD067],100
20,O=C(O)c1ccc2cc(O)ccc2c1 [FLD068],94
21,Nc1ccc(-c2ccc(N)cc2)cc1 [FLD069],70

row,Structure (SMILES),remaining activity at 2500 µM [%]
1,CN(C)c1ccc(C(=O)O)cc1 [FLD070],93
2,O=C(O)c1cccc(Cl)c1 [FLD071],100
3,Cc1ccc(O)c(C(=O)O)c1 [FLD072],99
4,C/C=C/c1ccc(OC)cc1 [FLD073],100
5,Nc1ccc2ccccc2c1 [FLD074],89
6,Cc1ccc(N)c(N)c1 [FLD075],90
7,Oc1cccc(-c2ccccc2)c1 [FLD076],98
8,OC1CCCc2ccccc21 (stereo not drawn) [FLD077],99
9,Nc1csc2nccnc12 [FLD078],100
10,S=c1[nH]ncs1 [FLD079],81
11,Nc1ccc(Cl)cc1 [FLD080],100
12,Cc1cc(=O)n(-c2ccccc2)n1C [FLD081],100
13,O=C(O)Cc1cccnc1 [FLD083],98
14,Nc1ncncn1 [FLD084],98
15,Nc1cccc(O)c1 [FLD085],100
16,Cc1cccc(N)c1C#N [FLD086],100
17,Cc1ccnc(N)c1 [FLD087],100
18,COc1cnc(N)nc1 [FLD089],100
19,Cc1cc(N)ccn1 [FLD090],100

# Same assay, conditions: residual activity; tested concentration 2.1 mM; read-out: DdlB RA
row,Structure (SMILES),remaining activity at 2100 µM [%]
1,Cc1nc(C(=O)O)c(C)n1C1CCN(C)CC1 [FF20-0714],100

# Same assay, conditions: tested concentration 1.9 mM; read-out: DdlB RA
row,Structure (SMILES),remaining activity at 1900 µM [%]
1,COc1ccccc1Cc1noc([C@H]2CCCN2)n1 [FF20-0278],87
2,Cc1cc(C)n(CCN2CCOCC2)n1 [FF20-3241],86

# Same assay, conditions: tested concentration 2.5 mM; read-out: DdlB RA
row,Structure (SMILES),remaining activity at 2500 µM [%]
1,CC(C)N1CCC(CCC(=O)O)CC1 [FF20-1518],108
2,CC(C)Oc1c(OC(C)C)c(=O)c1=O [FF20-3460],72

# Same assay, conditions: tested concentration 3.1 mM; read-out: DdlB RA
row,Structure (SMILES),remaining activity at 3100 µM [%]
1,Cn1cnc2c(c1=O)CCC(N)CC2 (stereo not drawn) [FF20-0287],91
